Reference: ChEMBL document CHEMBL4765292, “Flexible diaminodihydrotriazine inhibitors of Plasmodium falciparum dihydrofolate reductase: Binding strengths, modes of binding and their antimalarial activities” (Eur J Med Chem, 2020)

How the values were obtained:
[1] = tested on: DHFR (human against Plasmodium falciparum DHFR double mutant); assay: Selectivity index, ratio of Ki for human DHFR expressed in Escherichia coli BL21 to Ki for Plasmodium falciparum DHFR double mutant expressed in Escherichia coli BL21; assay type: toxicity; conditions: read-out: Ratio Ki
[2] = Inhibition of Plasmodium falciparum DHFR […] mutant expressed in Escherichia coli BL21 using DHF as substrate by spectrophotometric analysis
[3] = tested on: DHFR (human against Plasmodium falciparum DHFR); assay: Selectivity index, ratio of Ki for human DHFR expressed in Escherichia coli BL21 to Ki for Plasmodium falciparum DHFR expressed in Escherichia coli BL21; assay type: toxicity; conditions: read-out: Ratio Ki
Vero = assay: Cytotoxicity against African green monkey Vero cells assessed as reduction in cell viability incubated for 72 hrs by SRB assay; assay type: cell-based; conditions: Chlorocebus sabaeus
[4] = tested on: DHFR (human against Plasmodium falciparum DHFR N51I/C59R/S108N/I164L mutant); assay: Selectivity index, ratio of Ki for human DHFR expressed in Escherichia coli BL21 to Ki for Plasmodium falciparum DHFR N51I/C59R/S108N/I164L mutant expressed in Escherichia coli BL21; assay type: toxicity; conditions: read-out: Ratio Ki
[5] = Inhibition of Plasmodium falciparum DHFR expressed in Escherichia coli BL21 using DHF as substrate by spectrophotometric analysis
Plasmodium falciparum [6] = assay: Antimalarial activity against Plasmodium falciparum K1CB1 harboring DHFR […] mutant infected in human erythrocytes assessed as reduction in [3H]-hypoxanthine incorporation pretreated for 20 hrs followed by [3H]-hypoxanthine addition measured after 20 hrs by radioactivity method; assay type: functional, organism-based; conditions: K1CB1, Erythrocyte
[7] = Inhibition of Plasmodium falciparum DHFR N51I/C59R/S108N mutant expressed in Escherichia coli BL21 using DHF as substrate by spectrophotometric analysis
[8] = Inhibition of Plasmodium falciparum DHFR N51I/C59R/S108N/I164L mutant expressed in Escherichia coli BL21 using DHF as substrate by spectrophotometric analysis
Plasmodium falciparum [9] = assay: Antimalarial activity against Plasmodium falciparum TM4/8.2 infected in human erythrocytes assessed as reduction in [3H]-hypoxanthine incorporation pretreated for 20 hrs followed by [3H]-hypoxanthine addition measured after 20 hrs by radioactivity method; assay type: functional, organism-based
[10] = Therapeutic index, ratio of IC50 for African green monkey Vero cells to IC50 for Plasmodium falciparum K1CB1 harboring DHFR […] mutant; assay type: toxicity; conditions: read-out: Ratio IC50
Plasmodium falciparum [11] = assay: Antimalarial activity against Plasmodium falciparum V1/S harboring DHFR N51I/C59R/S108N/I164L mutant infected in human erythrocytes assessed as reduction in [3H]-hypoxanthine incorporation pretreated for 20 hrs followed by [3H]-hypoxanthine addition measured after 20 hrs by radioactivity method; assay type: functional, organism-based; conditions: Erythrocyte
[12] = Therapeutic index, ratio of IC50 for African green monkey Vero cells to IC50 for Plasmodium falciparum V1/S harboring DHFR N51I/C59R/S108N/I164L mutant; assay type: toxicity; conditions: read-out: Ratio IC50
Plasmodium falciparum [13] = assay: Antimalarial activity against Plasmodium falciparum CsI-2 harboring DHFR C59R/S108N/I164L mutant infected in human erythrocytes assessed as reduction in [3H]-hypoxanthine incorporation pretreated for 20 hrs followed by [3H]-hypoxanthine addition measured after 20 hrs by radioactivity method; assay type: functional, organism-based; conditions: CsI-2, Erythrocyte
[14] = Therapeutic index, ratio of IC50 for African green monkey Vero cells to IC50 for Plasmodium falciparum TM4/8.2; assay type: toxicity; conditions: against Plasmodium falciparum TM4/8.2, read-out: Ratio IC50
[15] = Inhibition of Plasmodium falciparum DHFR C59R/S108N/I164L mutant expressed in Escherichia coli BL21 using DHF as substrate by spectrophotometric analysis
Plasmodium falciparum [16] = assay: Antimalarial activity against Plasmodium falciparum W2 harboring DHFR N51I/C59R/S108N mutant infected in human erythrocytes assessed as reduction in [3H]-hypoxanthine incorporation pretreated for 20 hrs followed by [3H]-hypoxanthine addition measured after 20 hrs by radioactivity method; assay type: functional, organism-based; conditions: W2, Erythrocyte
[17] = Inhibition of Plasmodium falciparum DHFR A16V/S108T mutant expressed in Escherichia coli BL21 using DHF as substrate by spectrophotometric analysis
Plasmodium falciparum [18] = assay: Antimalarial activity against Plasmodium falciparum T9/94 RC17 harboring DHFR A16V/S108T mutant infected in human erythrocytes assessed as reduction in [3H]-hypoxanthine incorporation pretreated for 20 hrs followed by [3H]-hypoxanthine addition measured after 20 hrs by radioactivity method; assay type: functional, organism-based; conditions: T9/94 RC17, Erythrocyte

Compound CC1(C)NC(N)=NC(=N)N1OCCc1ccccc1 has a selectivity ratio [1] of 21, a Ki [2] of 2 nM and a selectivity ratio [3] of 39. It also gave an IC50 (Vero) of 12000 nM, a selectivity ratio [4] of 3 and a Ki [5] of 1.1 nM. The IC50 (Plasmodium falciparum [6]) was 39 nM, the Ki [7] was 2.9 nM and the Ki [8] was 17 nM. For the same compound, the IC50 (Plasmodium falciparum [9]) was 30 nM, the selectivity ratio [10] was 308 and the IC50 (Plasmodium falciparum [11]) was 720 nM. It also gave a selectivity ratio [12] of 17, an IC50 (Plasmodium falciparum [13]) of 300 nM and a selectivity ratio [14] of 400. The Ki [15] was 12 nM, the IC50 (Plasmodium falciparum [16]) was 240 nM and the Ki [17] was 7.1 nM.
Cc1ccc(C)c(NCCCON2C(N)=NC(N)=NC2(C)C)c1 gave a selectivity ratio [1] of 113, a Ki [2] of 1.1 nM and a selectivity ratio [3] of 155. It also gave an IC50 (Vero) of over 50000 nM, a selectivity ratio [4] of 33 and a Ki [5] of 0.8 nM. The IC50 (Plasmodium falciparum [6]) was 100 nM, the Ki [7] was 1.4 nM and the Ki [8] was 3.8 nM. The IC50 (Plasmodium falciparum [9]) was 26 nM, the selectivity ratio [10] was over 500 and the IC50 (Plasmodium falciparum [11]) was 350 nM. The selectivity ratio [12] was over 143, the IC50 (Plasmodium falciparum [13]) was 310 nM and the selectivity ratio [14] was over 1920. The Ki [15] was 1.5 nM, the IC50 (Plasmodium falciparum [16]) was 43 nM and the Ki [17] was 4.1 nM.
CC1N=C(N)N=C(N)N1OCCCOc1ccc(F)cc1Cl (stereo unspecified) gave a selectivity ratio [1] of 131, a Ki [2] of 0.7 nM and a selectivity ratio [3] of 229. For the same compound, the IC50 (Vero) was over 50000 nM, the selectivity ratio [4] was 70 and the Ki [5] was 0.4 nM. For the same compound, the IC50 (Plasmodium falciparum [6]) was 5.2 nM, the Ki [7] was 0.8 nM and the Ki [8] was 1.3 nM. The IC50 (Plasmodium falciparum [9]) was 23 nM, the selectivity ratio [10] was over 9620 and the IC50 (Plasmodium falciparum [11]) was 290 nM. It also gave a selectivity ratio [12] of over 172, an IC50 (Plasmodium falciparum [13]) of 47 nM and a selectivity ratio [14] of over 2170. For the same compound, the Ki [15] was 1.6 nM, the IC50 (Plasmodium falciparum [16]) was 33 nM and the Ki [17] was 1.8 nM.
CN(CCCON1C(N)=NC(N)=NC1(C)C)c1ccc(Cl)cc1 gave a selectivity ratio [1] of 24, a Ki [2] of 1.4 nM and a selectivity ratio [3] of 22. For the same compound, the IC50 (Vero) was 45000 nM, the selectivity ratio [4] was 10 and the Ki [5] was 1.5 nM. For the same compound, the IC50 (Plasmodium falciparum [6]) was 49 nM, the IC50 (Plasmodium falciparum [18]) was 3.2 nM and the Ki [8] was 3.4 nM. For the same compound, the IC50 (Plasmodium falciparum [9]) was 1.7 nM, the selectivity ratio [10] was 918 and the IC50 (Plasmodium falciparum [11]) was 420 nM. For the same compound, the selectivity ratio [12] was 107, the IC50 (Plasmodium falciparum [13]) was 170 nM and the selectivity ratio [14] was 26500. For the same compound, the Ki [15] was 2 nM, the IC50 (Plasmodium falciparum [16]) was 24 nM and the Ki [17] was 3.4 nM.
In the case of CC1(C)NC(N)=NC(=N)N1OCCCCOc1ccccc1, the selectivity ratio [1] is reported as 35, the Ki [2] is reported as 1.3 nM and the selectivity ratio [3] is reported as 57. The IC50 (Vero) was 9800 nM, the selectivity ratio [4] was 23 and the Ki [5] was 0.8 nM. It also gave an IC50 (Plasmodium falciparum [6]) of 33 nM, a Ki [7] of 1.6 nM and a Ki [8] of 2 nM. It also gave an IC50 (Plasmodium falciparum [9]) of 2.9 nM, a selectivity ratio [10] of 297 and an IC50 (Plasmodium falciparum [11]) of 220 nM. It also gave a selectivity ratio [12] of 45, an IC50 (Plasmodium falciparum [13]) of 220 nM and a selectivity ratio [14] of 3380. For the same compound, the Ki [15] was 1.7 nM, the IC50 (Plasmodium falciparum [16]) was 46 nM and the Ki [17] was 3.2 nM.
CC1(C)N=C(N)N=C(N)N1OCCSc1ccc(Cl)cc1 showed a selectivity ratio [1] of 32, a Ki [2] of 0.8 nM and a selectivity ratio [3] of 84. It also gave an IC50 (Vero) of 14000 nM, a selectivity ratio [4] of 8 and a Ki [5] of 0.3 nM. The IC50 (Plasmodium falciparum [6]) was 37 nM, the Ki [7] was 0.8 nM and the Ki [8] was 3 nM. It also gave an IC50 (Plasmodium falciparum [9]) of 3.5 nM, a selectivity ratio [10] of 378 and an IC50 (Plasmodium falciparum [11]) of 540 nM. The selectivity ratio [12] was 26, the IC50 (Plasmodium falciparum [13]) was 32 nM and the selectivity ratio [14] was 4000. It also gave a Ki [15] of 1.8 nM, an IC50 (Plasmodium falciparum [16]) of 24 nM and a Ki [17] of 1.5 nM.
With CC1(C)N=C(N)N=C(N)N1OCCCc1ccccc1 the selectivity ratio [1] was 30, the Ki [2] was 1.3 nM and the selectivity ratio [3] was 36. The IC50 (Vero) was 7100 nM, the selectivity ratio [4] was 8 and the Ki [5] was 1.1 nM. The IC50 (Plasmodium falciparum [6]) was 22 nM, the Ki [7] was 1.2 nM and the Ki [8] was 5 nM. For the same compound, the IC50 (Plasmodium falciparum [9]) was 9.2 nM, the selectivity ratio [10] was 323 and the IC50 (Plasmodium falciparum [11]) was 90 nM. It also gave a selectivity ratio [12] of 79, an IC50 (Plasmodium falciparum [13]) of 250 nM and a selectivity ratio [14] of 772. The Ki [15] was 2.8 nM, the IC50 (Plasmodium falciparum [16]) was 39 nM and the Ki [17] was 3.1 nM.
